According to ChEMBL document CHEMBL3407416, “Discovery of (R)-8-(1-(3,5-difluorophenylamino)ethyl)-N,N-dimethyl-2-morpholino-4-oxo-4H-chromene-6-carboxamide (AZD8186): a potent and selective inhibitor of PI3Kβ and PI3Kδ for the treatment of PTEN-deficient cancers” (J Med Chem, 2015):

Columns and labels:
[1] = target: T1, Phosphatidylinositol 4,5-bisphosphate 3-kinase catalytic subunit alpha isoform (Homo sapiens, UniProt P42336); experiment: Inhibition of human recombinant PI3Kalpha using PIP2 by Kinase-Glo Plus assay
Target sequence in this assay (P42336 whole entry, canonical isoform): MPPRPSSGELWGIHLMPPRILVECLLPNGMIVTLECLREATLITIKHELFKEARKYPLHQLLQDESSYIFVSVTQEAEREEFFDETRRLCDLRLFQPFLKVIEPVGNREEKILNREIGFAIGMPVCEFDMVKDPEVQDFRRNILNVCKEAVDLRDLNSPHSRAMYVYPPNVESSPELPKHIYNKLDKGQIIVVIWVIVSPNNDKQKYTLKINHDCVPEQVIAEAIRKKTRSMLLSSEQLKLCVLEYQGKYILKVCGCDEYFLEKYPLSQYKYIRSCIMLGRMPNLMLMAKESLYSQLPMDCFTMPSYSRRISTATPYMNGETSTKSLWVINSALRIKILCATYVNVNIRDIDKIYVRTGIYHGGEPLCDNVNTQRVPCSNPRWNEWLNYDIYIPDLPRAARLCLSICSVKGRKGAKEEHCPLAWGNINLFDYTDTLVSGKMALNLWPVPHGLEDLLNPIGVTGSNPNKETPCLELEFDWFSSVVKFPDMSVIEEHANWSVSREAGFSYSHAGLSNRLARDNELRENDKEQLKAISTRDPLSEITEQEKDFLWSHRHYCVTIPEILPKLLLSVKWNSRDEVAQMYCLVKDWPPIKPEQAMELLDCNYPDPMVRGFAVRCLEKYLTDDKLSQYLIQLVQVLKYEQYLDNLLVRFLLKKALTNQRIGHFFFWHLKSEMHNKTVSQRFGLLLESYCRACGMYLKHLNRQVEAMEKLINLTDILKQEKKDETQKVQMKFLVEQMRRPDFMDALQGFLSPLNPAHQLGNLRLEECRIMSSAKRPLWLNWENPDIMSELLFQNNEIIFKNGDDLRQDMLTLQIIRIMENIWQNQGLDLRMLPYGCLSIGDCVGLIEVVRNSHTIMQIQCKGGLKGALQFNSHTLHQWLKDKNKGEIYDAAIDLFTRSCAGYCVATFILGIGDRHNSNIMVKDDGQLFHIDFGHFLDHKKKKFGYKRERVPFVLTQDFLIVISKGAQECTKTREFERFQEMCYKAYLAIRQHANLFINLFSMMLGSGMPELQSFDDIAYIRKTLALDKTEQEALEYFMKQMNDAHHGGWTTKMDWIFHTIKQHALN

[2] = target: T2, Phosphatidylinositol 4,5-bisphosphate 3-kinase catalytic subunit beta isoform (Homo sapiens, UniProt P42338); experiment: Inhibition of human recombinant PI3Kbeta using PIP2 by Kinase-Glo Plus assay
[3] = target: Phosphatidylinositol 4,5-bisphosphate 3-kinase catalytic subunit gamma isoform (Homo sapiens, UniProt P48736); experiment: Inhibition of human recombinant PI3Kgamma using PIP2 by Kinase-Glo Plus assay
[4] = target: T3, Phosphatidylinositol 4,5-bisphosphate 3-kinase catalytic subunit delta isoform (Homo sapiens, UniProt O00329); experiment: Inhibition of human recombinant PI3Kdelta using PIP2 by Kinase-Glo Plus assay
T3 sequence (O00329 whole entry): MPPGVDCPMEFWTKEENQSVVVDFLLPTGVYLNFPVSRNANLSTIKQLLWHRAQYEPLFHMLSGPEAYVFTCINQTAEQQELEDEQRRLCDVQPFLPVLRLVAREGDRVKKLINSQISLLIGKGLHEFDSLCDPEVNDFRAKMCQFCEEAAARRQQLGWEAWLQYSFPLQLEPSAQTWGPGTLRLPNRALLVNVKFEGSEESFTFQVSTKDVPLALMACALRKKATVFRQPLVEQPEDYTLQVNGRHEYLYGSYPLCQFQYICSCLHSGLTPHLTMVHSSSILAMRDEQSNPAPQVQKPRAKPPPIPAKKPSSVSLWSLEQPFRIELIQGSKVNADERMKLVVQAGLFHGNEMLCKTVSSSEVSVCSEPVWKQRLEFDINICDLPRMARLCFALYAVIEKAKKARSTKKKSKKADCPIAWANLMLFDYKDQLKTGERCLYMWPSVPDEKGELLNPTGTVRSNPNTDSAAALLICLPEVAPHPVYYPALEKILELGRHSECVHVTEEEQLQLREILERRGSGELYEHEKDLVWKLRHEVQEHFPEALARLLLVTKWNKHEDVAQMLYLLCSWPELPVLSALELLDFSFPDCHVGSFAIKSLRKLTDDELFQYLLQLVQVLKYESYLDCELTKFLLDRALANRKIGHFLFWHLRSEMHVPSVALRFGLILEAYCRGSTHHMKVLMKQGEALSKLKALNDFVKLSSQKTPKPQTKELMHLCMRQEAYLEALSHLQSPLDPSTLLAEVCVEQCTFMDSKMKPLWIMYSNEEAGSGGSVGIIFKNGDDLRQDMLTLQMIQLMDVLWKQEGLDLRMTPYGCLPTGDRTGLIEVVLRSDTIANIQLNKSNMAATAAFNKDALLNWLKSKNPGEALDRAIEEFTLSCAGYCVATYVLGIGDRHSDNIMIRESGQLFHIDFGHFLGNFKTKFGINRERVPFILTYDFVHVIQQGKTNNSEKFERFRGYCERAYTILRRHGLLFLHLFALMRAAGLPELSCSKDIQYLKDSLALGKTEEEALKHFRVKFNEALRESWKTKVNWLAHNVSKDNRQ

[5] = target: T1, Phosphatidylinositol 4,5-bisphosphate 3-kinase catalytic subunit alpha isoform; experiment: Inhibition of PI3Kalpha mutant human BT474 cells assessed as inhibition of Akt phosphorylation at […] after 2 hrs; format: cell-based; details: bt-474
Target sequence in this assay (P42336 whole entry, looked up, canonical isoform): as the sequence (P42336 whole entry, canonical isoform) above

[6] = target: T2, Phosphatidylinositol 4,5-bisphosphate 3-kinase catalytic subunit beta isoform; experiment: Inhibition of PI3Kbeta in PTEN-null human MDA-MB-468 cells assessed as inhibition of Akt phosphorylation after 2 hrs; format: cell-based
[7] = Lipophilicity, log D of the compound at pH 7.4 by shake-flask method; format: physicochemical; details: buffer
[8] = Intrinsic clearance in cryopreserved human hepatocytes measured per 10^6 cells; format: ADME, cell-based, Hepatocyte; details: read-out: CLH
[9] = Apparent permeability from apical to basolateral side of human Caco2 cells; format: ADME, cell-based; details: Caco-2, read-out: permeability
[10] = AUC in mouse at 30 umol/kg, po administered as propylene glycol; format: ADME, organism-based; details: plasma
[11] = Clearance in mouse at 5 umol/kg, iv administered as bolus dose in 20 to 30% DMA in PBS; format: ADME, organism-based; details: in vivo
[12] = Volume of distribution in mouse at 5 umol/kg, iv administered as bolus dose in 20 to 30% DMA in PBS; format: ADME, organism-based; details: in vivo
[13] = Oral bioavailability in mouse at 30 umol/kg administered as propylene glycol; format: ADME, organism-based; details: in vivo
Mus musculus = experiment: Intrinsic clearance in mouse at 5 umol/kg, iv administered as bolus dose in 20 to 30% DMA in PBS; format: ADME, organism-based; details: in vivo
[14] = Fraction unbound in mouse plasma; format: ADME, cell-free
[15] = Fraction unbound in dog plasma; format: ADME, cell-free, Canis lupus familiaris
[16] = Fraction unbound in human plasma; format: ADME, cell-free
[17] = Clearance in dog at 5 umol/kg, iv administered as bolus dose in 20 to 30% DMA in PBS; format: ADME, organism-based, Canis lupus familiaris; details: in vivo
[18] = Volume of distribution in dog at 5 umol/kg, iv administered as bolus dose in 20 to 30% DMA in PBS; format: ADME, organism-based, Canis lupus familiaris; details: in vivo
[19] = Oral bioavailability in dog at 30 umol/kg administered as propylene glycol; format: ADME, organism-based, Canis lupus familiaris; details: in vivo
Canis familiaris = experiment: Intrinsic clearance in dog at 5 umol/kg, iv administered as bolus dose in 20 to 30% DMA in PBS; format: ADME, organism-based, Canis lupus familiaris; details: in vivo

Chain of Phosphatidylinositol 4,5-bisphosphate 3-kinase catalytic subunit gamma isoform (P48736 whole entry, canonical isoform): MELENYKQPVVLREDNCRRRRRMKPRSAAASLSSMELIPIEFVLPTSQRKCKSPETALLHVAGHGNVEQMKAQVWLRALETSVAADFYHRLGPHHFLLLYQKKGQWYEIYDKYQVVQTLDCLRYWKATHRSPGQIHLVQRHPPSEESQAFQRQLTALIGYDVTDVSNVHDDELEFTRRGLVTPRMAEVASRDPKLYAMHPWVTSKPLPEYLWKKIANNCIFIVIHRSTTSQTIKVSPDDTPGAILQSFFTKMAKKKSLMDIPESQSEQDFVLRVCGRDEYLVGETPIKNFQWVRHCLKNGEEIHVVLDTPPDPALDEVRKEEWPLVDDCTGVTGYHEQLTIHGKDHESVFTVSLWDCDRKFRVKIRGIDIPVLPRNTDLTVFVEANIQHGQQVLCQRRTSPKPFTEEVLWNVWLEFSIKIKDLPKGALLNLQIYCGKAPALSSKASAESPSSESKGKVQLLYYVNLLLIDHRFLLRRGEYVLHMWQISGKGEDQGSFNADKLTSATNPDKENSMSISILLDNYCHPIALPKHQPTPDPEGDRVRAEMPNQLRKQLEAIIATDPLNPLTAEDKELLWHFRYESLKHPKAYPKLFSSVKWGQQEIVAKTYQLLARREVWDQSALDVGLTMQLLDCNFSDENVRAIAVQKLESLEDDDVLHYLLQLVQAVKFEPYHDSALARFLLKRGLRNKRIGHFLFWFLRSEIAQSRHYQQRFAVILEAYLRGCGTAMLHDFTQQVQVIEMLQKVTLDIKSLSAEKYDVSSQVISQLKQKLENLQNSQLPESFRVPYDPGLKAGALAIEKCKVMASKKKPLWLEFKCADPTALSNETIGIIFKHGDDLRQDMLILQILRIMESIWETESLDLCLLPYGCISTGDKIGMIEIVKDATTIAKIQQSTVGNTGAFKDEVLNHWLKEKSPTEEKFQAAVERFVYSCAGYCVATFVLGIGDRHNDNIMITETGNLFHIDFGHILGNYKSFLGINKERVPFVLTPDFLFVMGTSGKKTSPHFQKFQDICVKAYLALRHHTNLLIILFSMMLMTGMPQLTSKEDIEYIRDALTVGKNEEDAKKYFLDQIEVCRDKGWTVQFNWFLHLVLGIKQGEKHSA
T2 sequence (P42338 whole entry, canonical isoform): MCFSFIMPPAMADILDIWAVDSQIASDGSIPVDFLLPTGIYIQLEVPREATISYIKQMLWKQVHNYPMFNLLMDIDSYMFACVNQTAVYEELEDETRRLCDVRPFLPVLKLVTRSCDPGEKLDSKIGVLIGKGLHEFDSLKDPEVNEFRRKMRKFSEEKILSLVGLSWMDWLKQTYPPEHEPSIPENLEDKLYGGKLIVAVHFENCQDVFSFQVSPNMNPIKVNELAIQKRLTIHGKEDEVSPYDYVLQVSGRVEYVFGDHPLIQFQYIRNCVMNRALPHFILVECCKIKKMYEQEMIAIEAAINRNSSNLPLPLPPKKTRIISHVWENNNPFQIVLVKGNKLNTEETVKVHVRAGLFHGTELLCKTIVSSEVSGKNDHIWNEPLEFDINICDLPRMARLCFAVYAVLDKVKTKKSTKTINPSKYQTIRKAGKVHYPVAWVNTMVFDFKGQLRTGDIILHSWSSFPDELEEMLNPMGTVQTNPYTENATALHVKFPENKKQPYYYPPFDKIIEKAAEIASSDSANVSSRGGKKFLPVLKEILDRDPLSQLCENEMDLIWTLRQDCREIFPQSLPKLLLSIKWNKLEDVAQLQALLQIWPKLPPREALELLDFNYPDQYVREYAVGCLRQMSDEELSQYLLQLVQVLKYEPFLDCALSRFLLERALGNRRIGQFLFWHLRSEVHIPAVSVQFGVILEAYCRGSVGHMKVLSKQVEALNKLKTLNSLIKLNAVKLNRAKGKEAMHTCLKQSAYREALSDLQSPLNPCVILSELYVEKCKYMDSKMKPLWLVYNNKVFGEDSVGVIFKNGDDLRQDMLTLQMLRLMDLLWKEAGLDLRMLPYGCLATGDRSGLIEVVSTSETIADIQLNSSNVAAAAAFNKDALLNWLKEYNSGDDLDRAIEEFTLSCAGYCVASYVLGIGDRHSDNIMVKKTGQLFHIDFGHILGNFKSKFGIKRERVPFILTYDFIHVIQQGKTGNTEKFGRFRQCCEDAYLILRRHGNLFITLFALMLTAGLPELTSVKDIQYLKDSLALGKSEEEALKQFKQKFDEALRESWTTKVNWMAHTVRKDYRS

Row | SMILES | IC50 [1] [nM] | IC50 [2] [nM] | IC50 [3] [nM] | IC50 [4] [nM] | IC50 [5] [nM] | IC50 [6] [nM] | logD [7] | hepatocyte CLint [8] [µL/min/1e6 cells] | Papp A→B [9] [×10⁻⁶ cm/s] | AUC [10] [µM·h] | fraction unbound [15] | fraction unbound [16] | also measured
1 | C[C@@H](Nc1cccc(Cl)c1F)c1cc(C(=O)N(C)C)cc2c(=O)cc(N3CCOCC3)oc12 | 28 | 5 | 320 | 22 | 500 | 20 | 2.3 | < 3 | 21 | 0.9 | 0.26 | 0.15 | clearance [11]: 81 mL/min/kg; Vd [12]: 1.7 L/kg; bioavailability [13]: 19%; clearance (Mus musculus): 64 mL/min/kg
2 | C[C@H]1CN(c2cc(=O)c3cc(C(=O)N(C)C)cc([C@@H](C)Nc4cc(F)cc(F)c4)c3o2)CCO1 | 12 | 4 | 140 | 12 | 110 | 0.4 | 2.7 | < 3 | 14 | 3.3 | 0.2 | 0.14 | clearance [11]: 76 mL/min/kg; Vd [12]: 2.2 L/kg; bioavailability [13]: 50%; clearance (Mus musculus): 53 mL/min/kg; clearance [17]: 69 mL/min/kg; Vd [18]: 2.5 L/kg; bioavailability [19]: 5%; clearance (Canis familiaris): 15 mL/min/kg; fraction unbound [14]: 0.12
3 | CN(C)C(=O)c1cc(CN(C)c2cc(F)cc(F)c2)c2oc(N3CCOCC3)cc(=O)c2c1 |  |  |  |  |  |  | 2.6 | < 5 | 36 |  |  |  | 
4 | C[C@H](c1cc(C(=O)N(C)CCO)cc2c(=O)cc(N3CCOCC3)oc12)N(C)c1cc(F)cc(F)c1 | 180 |  | 1200 | 53 | 4700 |  | 2.1 | < 3 | 7 | 0.7 | 0.23 | 0.17 | fraction unbound [14]: 0.15
5 | CC(Nc1cccc(F)c1)c1cc(C(=O)N(C)C)cc2c(=O)cc(N3CCOCC3)oc12 (racemic) | 220 | 12 | 2600 | 73 | 2400 | 32 | 1.9 | < 3 |  |  |  |  | 
6 | CC(Nc1ccc(F)cc1)c1cc(C(=O)N(C)C)cc2c(=O)cc(N3CCOCC3)oc12 (racemic) | 810 | 18 | 13000 | 110 | 12400 | 128 | 1.5 | < 3 |  |  |  |  | 
7 | CC(Nc1cccc(F)c1F)c1cc(C(=O)N(C)C)cc2c(=O)cc(N3CCOCC3)oc12 (racemic) | 370 | 13 | 4200 | 76 | 2200 | 24 | 1.9 | < 3 | 13 |  |  |  | 
8 | CC(Nc1cc(F)ccc1F)c1cc(C(=O)N(C)C)cc2c(=O)cc(N3CCOCC3)oc12 (racemic) | 450 | 19 | 6000 | 150 | 7000 | 60 | 1.8 | 6 | 12 |  |  |  | 

Now from value to molecule, other results behind:

Row | IC50 [1] [nM] | IC50 [2] [nM] | IC50 [3] [nM] | IC50 [4] [nM] | IC50 [5] [nM] | IC50 [6] [nM] | logD [7] | hepatocyte CLint [8] [µL/min/1e6 cells] | Papp A→B [9] [×10⁻⁶ cm/s] | AUC [10] [µM·h] | fraction unbound [15] | fraction unbound [16] | SMILES | also measured
9 | 170 | 7 | 2500 | 32 | 2500 | 17 | 1.9 | < 3 | 6.5 | 0.8 | 0.34 | 0.27 | C[C@@H](Nc1ccc(F)c(F)c1)c1cc(C(=O)N(C)C)cc2c(=O)cc(N3CCOCC3)oc12 | clearance [11]: 112 mL/min/kg; Vd [12]: 1.7 L/kg; bioavailability [13]: 19%; clearance (Mus musculus): 57 mL/min/kg; fraction unbound [14]: 0.25
10 | 25 |  | 210 | 28 | 170 |  | 2.8 | 12 | 11 | 0.8 | 0.14 | 0.06 | C[C@@H](Nc1cc(F)cc(Cl)c1)c1cc(C(=O)N(C)C)cc2c(=O)cc(N3CCOCC3)oc12 | clearance [11]: 134 mL/min/kg; Vd [12]: 3.5 L/kg; bioavailability [13]: 23%; clearance (Mus musculus): 147 mL/min/kg; fraction unbound [14]: 0.04
11 | 29 |  | 350 | 20 | 280 |  | 2.6 | < 3 | 9.2 |  |  |  | C[C@@H](Nc1cc(F)cc(F)c1)c1cc(C(=O)N2CCC2)cc2c(=O)cc(N3CCOCC3)oc12 | 
12 | 18 | 6 | 250 | 14 | 960 | 3 | 2.8 | < 3 | 3.5 |  |  |  | CNC(=O)c1cc([C@@H](C)Nc2cc(F)cc(F)c2)c2oc(N3CCOCC3)cc(=O)c2c1 | 
13 | 970 | 17 | 13000 | 160 | 7400 | 132 | 2.2 | 7 | 31 |  |  |  | C[C@@H](Oc1cc(F)cc(F)c1)c1cc(C(=O)N(C)C)cc2c(=O)cc(N3CCOCC3)oc12 | 
14 | 370 | 7 | 1600 | 82 | 4800 | 12 | 2.4 | < 3 | 4.6 | 0.8 | 0.23 | 0.17 | C[C@H](c1cc(C(=O)N2CCC(O)CC2)cc2c(=O)cc(N3CCOCC3)oc12)N(C)c1cc(F)cc(F)c1 | fraction unbound [14]: 0.18
15 | 90 | 10 | 530 | 62 | 6900 | 15 | 1.5 | < 3 | 1 |  |  |  | CC(Nc1cc(F)cc(F)c1)c1cc(C(=O)N(C)CCO)cc2c(=O)cc(N3CCOCC3)oc12 (racemic) | 
16 | 98 | 9 | 700 | 50 | 400 | 2 | 2.7 | 6 | 8.5 |  |  |  | CC(Nc1cc(F)cc(F)c1)c1cc(C(=O)N2CCCC2)cc2c(=O)cc(N3CCOCC3)oc12 (racemic) | 
17 | 300 | 11 | 2400 | 115 | 6000 | 33 | 1.7 | < 3 | 4.8 |  |  |  | CC(Nc1cc(F)cc(F)c1)c1cc(C(=O)N2CCOCC2)cc2c(=O)cc(N3CCOCC3)oc12 (racemic) | 
18 | 230 | 11 | 830 | 90 | 6400 | 17 | 1.8 | < 3 | 1 |  |  |  | CC(Nc1cc(F)cc(F)c1)c1cc(C(=O)N2CCC(O)CC2)cc2c(=O)cc(N3CCOCC3)oc12 (racemic) | 
19 | 57 | 9 | 520 | 54 | 13000 | 31 | 2.1 | < 3 | 0.28 |  |  |  | COCCNC(=O)c1cc(C(C)Nc2cc(F)cc(F)c2)c2oc(N3CCOCC3)cc(=O)c2c1 (racemic) | 
